In US9464064B2, “HCV helicase inhibitors and methods of use thereof” (University of Kansas, priority 2011, dated 2016):

Biological target: T1, HCV NS3 helicase NS3h_1b(con1) (Hepatitis C virus genotype 1b, UniProt Q9WMX2)
T1 construct: truncated C-terminally His-tagged NS3 proteins lacking the N-terminal protease, called NS3h; His-tag (C); made in house
Experiment: MBHA screen of NCI mechanistic set library at 20 μM (percent inhibition, compound interference)
Format: biochemical
Details: compounds at 20 μM; for Inh. (%) (Inhibition): calculated from Equation 1
Summary of the method: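 Molecular beacon-based DNA unwinding assay; compounds screened at 20 μM in triplicate, with DMSO-only negative and 500 nM dT20 positive controls. Fluorescence (ex 643/em 670 nm) was read before and 30 min after adding ATP to 1 mM. Percent inhibition came from the change relative to DMSO controls; interference from pre-ATP fluorescence versus DMSO controls.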

[1] = MBHA with DNA substrate, assay interference calculated with Equation 2
[2] = assay interference calculated with Equation 2 (fluorescence vs DMSO-only controls before ATP)

T1 sequence (Q9WMX2 1192-1657): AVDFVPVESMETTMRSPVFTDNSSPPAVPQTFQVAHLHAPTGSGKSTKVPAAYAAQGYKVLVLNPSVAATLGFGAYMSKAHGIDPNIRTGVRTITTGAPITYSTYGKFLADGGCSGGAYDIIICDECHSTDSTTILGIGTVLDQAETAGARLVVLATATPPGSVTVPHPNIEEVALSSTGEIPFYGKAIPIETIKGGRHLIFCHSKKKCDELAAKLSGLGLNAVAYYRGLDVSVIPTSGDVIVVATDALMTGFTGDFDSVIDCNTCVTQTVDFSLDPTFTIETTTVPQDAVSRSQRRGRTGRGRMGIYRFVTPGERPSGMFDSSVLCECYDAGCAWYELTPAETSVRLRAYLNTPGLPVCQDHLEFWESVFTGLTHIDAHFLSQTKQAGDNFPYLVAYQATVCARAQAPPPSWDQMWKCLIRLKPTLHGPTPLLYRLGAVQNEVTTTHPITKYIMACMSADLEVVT

Row | Int.* (Ratio) (Interference) [1] | Inh. (%) (Inhibition) (MBHA with DNA substrate) | Inh. (%) (Inhibition) (MBHA with a DNA substrate) | Int.* (Ratio) (Interference) [2] | Structure (SMILES)
1 | 0.96 Ratio | 6.7% | – | – | CCN(CC)CCOC(=O)Cc1cccc2c(=O)cc(-c3ccccc3)oc12 [Compound 293015]
2 | 1.00 Ratio | −14.7% | – | – | O=C1Oc2ccccc2C(=O)/C1=C1\C=C(c2ccccc2)SS1 [Compound 293927]
3 | – | – | −28.1% | 1.06 Ratio | O=C1Nc2ccc(Br)cc2/C1=C\C(=O)c1ccccc1 [Compound 294961]
4 | 0.87 Ratio | 28.4% | – | – | Nc1nc(N)c2cc(Sc3cccc(C(F)(F)F)c3)ccc2n1 [Compound 305782]
5 | – | – | 8.9% | 1.04 Ratio | CC(=O)N(C)c1ccc(Nc2cc(C)[nH]c3ccc4ncnc4c23)cc1.Cl [Compound 305884]
6 | 1.05 Ratio | −13.3% | – | – | CN(C)CCN1C(=O)c2cccc3cc(N)cc(c23)C1=O [Compound 308847]
7 | 0.29 Ratio | 5.0% | – | – | CC(=O)O.Cc1c2cc[n+](CCN3CCCCC3)cc2c(C)c2c1[nH]c1ccc(O)cc12 [Compound 311153]
8 | – | – | 10.7% | 0.90 Ratio | Nc1ccc2c(c1)CN1C(=O)c3ccccc3C1=N2 [Compound 320846]
9 | 0.80 Ratio | 4.4% | – | – | O=C(N=Nc1c(O)[nH]c2c(Cl)cc(Cl)cc12)c1ccccc1O [Compound 320864]
10 | 1.22 Ratio | −10.2% | – | – | CN(C)c1ccc(/C=N/N=C2\C(=O)Nc3c(Cl)cc(Cl)cc32)cc1 [Compound 327697]
11 | 0.96 Ratio | −0.8% | – | – | Cc1c(Cl)cccc1NC(=O)c1cccc([N+](=O)[O-])c1O [Compound 328477]
12 | 1.08 Ratio | −11.4% | – | – | CCOc1cccc(/C=N/N=C2\C(=O)Nc3c(Cl)cc(Cl)cc32)c1O [Compound 329277]
13 | 0.94 Ratio | 1.9% | – | – | O=C1Nc2c(Cl)cc(Cl)cc2C1=NN=Cc1ccco1 [Compound 329279]
14 | 0.92 Ratio | 13.8% | – | – | COc1cc2c(c(OC)c1OC)-c1c(cc3c(c1OC)OCO3)CC(C)C(C)(O)C2OC(=O)c1ccccc1 (centres unmarked) [Compound 330516]
15 | 0.93 Ratio | −16.9% | – | – | CCN(CC)CCCC(C)NC(=O)c1ccc2c(c1)C(=O)c1ccccc1C2=O.Cl (centres unmarked) [Compound 331757]
16 | 0.95 Ratio | −1.5% | – | – | Cc1c2ccnc(C(N)=O)c2c(C)c2c1[nH]c1ccccc12.Cl [Compound 335142]

The next lines start with the compound.

Row | Structure (SMILES) | Int.* (Ratio) (Interference) [1] | Inh. (%) (Inhibition) (MBHA with DNA substrate) | Inh. (%) (Inhibition) (MBHA with a DNA substrate) | Int.* (Ratio) (Interference) [2]
17 | COC1CC(CC2CCC(C)C(C(C)C(=O)O)O2)OC2(OC(C)(C3CCC(C)(C4OC(C5OC(O)(CO)C(C)CC5C)CC4C)O3)CC2C)C1C (centres unmarked) [Compound 292567] | 0.85 Ratio | −11.3% | – | –
18 | C=C1C(=O)OC2/C=C(/CO)[C@@H](OC(C)=O)C[C@H](O)/C(C)=C\[C@@H](OC(=O)[C@@H](C)CC)[C@@H]12 (some centres unmarked) [Compound 292663] | 0.95 Ratio | 5.1% | – | –
19 | CC(C)C1=C(O)C2=C(C(=O)C1=O)C1(C)CCCC(C)(C)C1CC2O (centres unmarked) [Compound 294577] | 0.95 Ratio | −15.9% | – | –
20 | CC1(O)C=CC(=O)C=C1 [Compound 295156] | – | – | 9.0% | 0.99 Ratio
21 | NCCCNCCSP(=O)(O)O [Compound 296961] | 0.92 Ratio | 17.5% | – | –
22 | COc1cc2oc(=O)cc(C)c2cc1[N+](=O)[O-] [Compound 299879] | 0.94 Ratio | 20.5% | – | –
23 | COc1ccc(-c2csc(=[N+]3CCCCC3)s2)cc1.O=S(=O)(O)O [Compound 302358] | 1.05 Ratio | 1.1% | – | –
24 | C=C1C(=O)C2=CC1CCC(=O)C1(C)CCC(OC(C)=O)C(C)(C)C1CC2O (centres unmarked) [Compound 302979] | 0.89 Ratio | −8.3% | – | –
25 | CCC12C[N+]3([O-])CCc4c([nH]c5ccccc45)C(C(=O)OC)(c4cc5c(cc4OC)N(C)C4C(O)(C(=O)OC)C(OC(C)=O)C6(CC)C=CCN7CCC54C76)CC(C3)C1O2 (centres unmarked) [Compound 304421] | 0.97 Ratio | 25.6% | – | –
26 | C=C1C(C)C2C(Cc3ccccc3)NC(=O)C23C(OC(C)=O)/C=C/C(C)(O)CC(C)C/C=C/C3C1O (centres unmarked) [Compound 305222] | 1.03 Ratio | 12.2% | – | –
27 | CC(C)(C)NCCC(O)c1cc(C(F)(F)F)nc2c(C(F)(F)F)cccc12.O=P(O)(O)O (centres unmarked) [Compound 305819] | 0.99 Ratio | 28.1% | – | –
28 | C[C@@H]1CC[C@@]2(OC1)O[C@H]1CC3[C@@H]4CC=C5C[C@@H](O[C@@H]6O[C@H](CO)[C@@H](O[C@@H]7O[C@@H](C)[C@H](O[C@@H]8O[C@@H](C)[C@H](O)[C@@H](O)[C@@H]8O)[C@@H](O)[C@H]7O)[C@H](O)[C@H]6O[C@@H]6O[C@@H](C)C(O)[C@@H](O)[C@H]6O)CC[C@]5(C)[C@H]4CC[C@]3(C)[C@H]1[C@@H]2C (some centres unmarked) [Compound 306864] | 0.86 Ratio | 1.3% | – | –
29 | O=NN(CCCl)C(=O)NCc1ccc[n+]([O-])c1 [Compound 307454] | – | – | −2.9% | 1.08 Ratio
30 | CCP(CC)CC.[Au+].[Cl-] [Compound 313981] | – | – | −3.8% | 0.93 Ratio
31 | COc1cc2c3c(n(C)c(=O)c2cc1OC)-c1cc2c(cc1C3=O)OCO2 [Compound 314622] | 0.70 Ratio | 23.1% | – | –
32 | O=C1c2ccccc2C(=O)c2c(O)c(NCCNCCO)cc(O)c21 [Compound 316157] | 0.70 Ratio | 36.4% | – | –
33 | C/C(=N\NC(=S)N1CCC1)c1ccccn1 [Compound 319726] | 1.02 Ratio | 3.2% | – | –

Row | Structure (SMILES) | Int.* (Ratio) (Interference) [1] | Inh. (%) (Inhibition) (MBHA with DNA substrate) | Inh. (%) (Inhibition) (MBHA with a DNA substrate) | Int.* (Ratio) (Interference) [2]
34 | COc1ccc2c(c1[N+](=O)[O-])CC[C@@H]1[C@@H]2CC[C@]2(C)C(=O)CC[C@@H]12 [Compound 321803] | 1.02 Ratio | −11.7% | – | –
35 | C/C(=N\N=C(/[Se])N1CC2CCC(CC2)C1)c1ccccn1 [Compound 323241] | – | – | 10.7% | 0.90 Ratio
36 | CCCCCCCCCCCCCCCCCCOCC(COP(=O)([O-])OCC[N+](C)(C)C)OC (centres unmarked) [Compound 324368] | 0.85 Ratio | −15.0% | – | –
37 | CCCCS(=N)(=O)CCC(N)C(=O)O (centres unmarked) [Compound 326231] | 0.94 Ratio | 28.0% | – | –
38 | Clc1cc2nc[nH]c2cc1Cl [Compound 326397] | 1.06 Ratio | 1.6% | – | –
39 | C[C@@H]1CCOC(=O)/C=C/C=C\C(=O)O[C@@H]2C[C@H]3O[C@@H]4[C@@H]5O[C@]5(C)[C@H](O)C[C@]4(COC(=O)[C@H]1O)[C@]2(C)[C@@]31CO1 [Compound 328166] | 1.04 Ratio | 20.7% | – | –
40 | CC(=O)OC1C(O)C(C)OC(OC2C(OC(=O)C3CCC4C(C3)OC3(CC(OC(=O)/C=C/c5ccccc5)C(C)CO3)C43CO3)OC(C)C(O)C2OC(C)=O)C1O (centres unmarked) [Compound 328426] | – | – | −3.0% | 1.00 Ratio
41 | CC1(C)CC2=NO[Se]3=C2C(=NO3)C1 [Compound 328587] | 0.95 Ratio | −1.3% | – | –
42 | C=C1C(=O)O[C@@H]2/C=C(/C)C(=O)C[C@H]3OC(C)(C)O[C@]3(C)C[C@@H](OC(=O)/C(C)=C\C)[C@@H]12 [Compound 329696] | 0.81 Ratio | 32.6% | – | –
43 | COC1CC(C)C(OC)c2cc(O)cc(c2O)NC(=O)/C(C)=C/C=C\C(C)C(OC(N)=O)/C(C)=C/C(C)C1OC (centres unmarked) [Compound 330500] | – | – | 12.0% | 1.04 Ratio
44 | COc1cc2c(c(O)c1OC)-c1c(cc(OC)c(OC)c1OC)C[C@@H](C)[C@@H](C)C2 [Compound 330515] | 0.95 Ratio | 4.3% | – | –
45 | CC(=O)O[C@H]1C(=O)[C@@]2(C)[C@H]([C@H](OC(=O)c3ccccc3)[C@]3(O)C[C@H](O)C(C)=C1C3(C)C)[C@]1(OC(C)=O)CO[C@@H]1C[C@@H]2O [Compound 330753] | – | – | −24.1% | 0.88 Ratio
46 | CCOC(=O)Nc1cc2c(c(N)n1)N=C(c1ccccc1)CN2 [Compound 330770] | 0.91 Ratio | −1.6% | – | –
47 | CO[C@@H](/C(C)=C/C=C/C(C)=C/c1coc(C)n1)[C@@H](C)[C@@H]1C[C@H](O)[C@@]2(C)O[C@@H]2/C=C/[C@@H](C)[C@H]2C[C@H](CC(=O)O2)C[C@@H]2O[C@H]2C(=O)O1 [Compound 332598] | 0.98 Ratio | −11.7% | – | –
48 | COC(=O)NC1C(C)OC(OC2C/C=C(\C)C3C=C[C@H]4C(OC5CC(OC6CCC(OC7CC(O)C(OC8CCC(O)C(C)O8)C(C)O7)C(C)O6)C(OC(C)=O)C(C)O5)C(C)CC(C)[C@@H]4[C@@]3(C)C([O-])=C3C(=O)OC4(CC(C=O)=CC(O)[C@@H]4/C=C\2C)C3=O)CC1(C)[N+](=O)[O-].[Na+] (some centres unmarked) [Compound 333856] | – | – | −5.2% | 0.95 Ratio
49 | O=C1NC(=S)NC(=O)C1C(=O)Nc1ccccc1 [Compound 336628] | 0.90 Ratio | 17.4% | – | –
